Eleven molecules from patent US20240238425A1, “HSD17B13 Inhibitors and/or Degraders” (Pfizer Inc., priority 2022, published 2024) can be followed below.

Where a name gives a salt, the structure may show the parent alone.

In this assay the test system is HiBiT-HSD17β13 fusion protein (N-terminal HiBiT-tagged HSD17β13 isoform D) in Huh7 HiBiT-HSD17β13 OE cells. As to the kind of experiment: Whole-cell Huh7-HSD17B13 HiBiT assay (degrader potency and maximal efficacy, luminescence readout). It counts as cell-based, human. Particulars: 24 hour incubation, geometric mean, * = geometric mean for all forms tested (parent and salt forms); for DC50: read-out: Huh7_HIBIT-HSD17β13_DC50 GMean DC50; for Huh7_HIBIT-HSD17β13_DC50 GMean Asymptote Maximum: max. concentration 1 μM. Summed up: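 Luminescence from lytic HiBiT detection tracked residual HiBiT-HSD17β13 (isoform D, N-terminal tag) in a stable Huh7 overexpressing clone after 24 h compound treatment at 37° C, 11 concentrations up to 1 μM final. Percent effect used DMSO (zero) and parental Huh7 (high) wells; four-parameter fit gave 50% degradation; viability checked by CellTiter-Glo.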
In general terms: The HiBiT peptide binds its large partner to form an active luciferase.

`O=C1CCN(c2cnn3cc(CCCN4CC(F)(F)C5(C4)CN(c4ccc6cn([C@H]7CC[C@H](CNC(=O)c8cc(F)c(O)c(F)c8F)CC7)nc6c4)C5)ccc23)C(=O)N1` [Example 29, N-({(1r,4r)-4-[6-(6-{3-[3-(2,4-dioxo-1,3-diazinan-1-yl)pyrazolo[1,5-a]pyridin-6-yl]propyl}-8,8-difluoro-2,6-diazaspiro[3.4]octan-2-yl)-2H-indazol-2-yl]cyclohexyl}methyl)-2,3,5-trifluoro-4-hydroxybenzamide]: the 50% degradation concentration (DC50) (usually the concentration at which degradation of the target reaches its halfway point) amounted to 1.9 nM and the “Huh7_HIBIT-HSD17β13_DC50 GMean Asymptote Maximum” value is given as 80%.
As to `Cn1c(=O)n(C2CCC(=O)NC2=O)c2ccc(CCCN3CC[C@@H]4CN(c5ccc6cn([C@H]7CC[C@H](CNC(=O)c8cc(F)c(O)c(F)c8F)CC7)nc6c5)C[C@H]4C3)cc21` (mixture of isomers) [Example 101, N-{[(1r,4r)-4-{6-[(3aR,7aS)-5-(3-{1-[(3RS)-2,6-dioxopiperidin-3-yl]-3-methyl-2-oxo-2,3-dihydro-1H-benzimidazol-5-yl}propyl)octahydro-2H-pyrrolo[3,4-c]pyridin-2-yl]-2H-indazol-2-yl}cyclohexyl]methyl}-2,3,5-trifluoro-4-hydroxybenzamide, formate salt], the half-maximal degradation concentration (DC50) stood at 0.88 nM and the “Huh7_HIBIT-HSD17β13_DC50 GMean Asymptote Maximum” value turned out to be 74%.
On the same counts, the results for `O=C1CCN(c2cc(C(=O)N3CCC(CN4CCN(c5ncc(-c6ccc7cn([C@H]8CC[C@H](CNC(=O)c9cc(F)c(O)c(F)c9F)CC8)nc7c6)cn5)CC4)CC3)ccc2Cl)C(=O)N1` [Example 89, N-{[(1r,4r)-4-(6-{2-[4-({1-[4-chloro-3-(2,4-dioxo-1,3-diazinan-1-yl)benzoyl]piperidin-4-yl}methyl)piperazin-1-yl]pyrimidin-5-yl}-2H-indazol-2-yl)cyclohexyl]methyl}-2,3,5-trifluoro-4-hydroxybenzamide, formate salt] are 3 nM and 77%.
Turning to `Cc1ccc(C(=O)N2CCN(C3COC4(CCN(c5ncc(-c6ccc7cn([C@H]8CC[C@H](CNC(=O)c9cc(F)c(O)c(F)c9F)CC8)nc7c6)cn5)CC4)C3)CC2)cc1N1CCC(=O)NC1=O` (stereo partly shown) [Example 59, N-{[(1r,4r)-4-{6-[2-(3-{4-[3-(2,4-dioxo-1,3-diazinan-1-yl)-4-methylbenzoyl]piperazin-1-yl}-1-oxa-8-azaspiro[4.5]decan-8-yl)pyrimidin-5-yl]-2H-indazol-2-yl}cyclohexyl]methyl}-2,3,5-trifluoro-4-hydroxybenzamide, trifluoroacetate salt], the DC50 is 1 nM and the “Huh7_HIBIT-HSD17β13_DC50 GMean Asymptote Maximum” value amounted to 80%.
On the same counts, the results for `Cn1c(=O)n(C2CCC(=O)NC2=O)c2ccc(CCCN3CCN(c4ccc(-c5noc(C67CCC(CNC(=O)c8cc(F)c(O)c(F)c8F)(CC6)CC7)n5)nn4)CC3)cc21.O=C(O)C(F)(F)F` (racemic) [Example 15, N-{[4-(3-{6-[4-(3-{1-[(3RS)-2,6-Dioxopiperidin-3-yl]-3-methyl-2-oxo-2,3-dihydro-1H-benzimidazol-5-yl}propyl)piperazin-1-yl]pyridazin-3-yl}-1,2,4-oxadiazol-5-yl)bicyclo[2.2.2]octan-1-yl]methyl}-2,3,5-trifluoro-4-hydroxybenzamide, trifluoroacetate salt] are 0.31 nM and 85%.
Take `Cn1c(=O)n(C2CCC(=O)NC2=O)c2ccc(CCCN3CCc4nc(-c5ccc6cn([C@H]7CC[C@H](CNC(=O)c8cc(F)c(O)c(F)c8F)CC7)nc6c5)ncc4C3)cc21` (mixture of isomers) [Example 87, N-{[(1r,4r)-4-{6-[6-(3-{1-[(3RS)-2,6-dioxopiperidin-3-yl]-3-methyl-2-oxo-2,3-dihydro-1H-benzimidazol-5-yl}propyl)-5,6,7,8-tetrahydropyrido[4,3-d]pyrimidin-2-yl]-2H-indazol-2-yl}cyclohexyl]methyl}-2,3,5-trifluoro-4-hydroxybenzamide]: the DC50 came to 0.5 nM and the “Huh7_HIBIT-HSD17β13_DC50 GMean Asymptote Maximum” value was found to be 78%.
On the same counts, the results for `Cc1ccc(C(=O)N2CCC(CN3CCN(c4ncc(-c5ccc6cn(C78CCC(CNC(=O)c9cc(F)c(O)c(F)c9F)(CC7)CC8)nc6c5)cn4)CC3)CC2)cc1N1CCC(=O)NC1=O` [Example 114, N-{[4-(6-{2-[4-({1-[3-(2,4-dioxo-1,3-diazinan-1-yl)-4-methylbenzoyl]piperidin-4-yl}methyl)piperazin-1-yl]pyrimidin-5-yl}-2H-indazol-2-yl)bicyclo[2.2.2]octan-1-yl]methyl}-2,3,5-trifluoro-4-hydroxybenzamide] are 2.6 nM and 77%.
Take `Cn1c(=O)n(C2CCC(=O)NC2=O)c2ccc(CCCN3Cc4cnc(-c5ccc6cn([C@H]7CC[C@H](CNC(=O)c8cc(F)c(O)c(F)c8F)CC7)nc6c5)nc4C3)cc21` (mixture of isomers) [Example 86, N-{[(1r,4r)-4-{6-[6-(3-{1-[(3RS)-2,6-dioxopiperidin-3-yl]-3-methyl-2-oxo-2,3-dihydro-1H-benzimidazol-5-yl}propyl)-6,7-dihydro-5H-pyrrolo[3,4-d]pyrimidin-2-yl]-2H-indazol-2-yl}cyclohexyl]methyl}-2,3,5-trifluoro-4-hydroxybenzamide]: the DC50 was found to be 0.27 nM and the “Huh7_HIBIT-HSD17β13_DC50 GMean Asymptote Maximum” value turned out to be 78%.
In the case of `O=C1CCN(c2cnn3cc(CCCN4Cc5ccc(-c6ccc7cn([C@H]8CC[C@H](CNC(=O)c9cc(F)c(O)c(F)c9F)CC8)nc7c6)cc5C4)ccc23)C(=O)N1` [Example 131, N-({(1r,4r)-4-[6-(2-{3-[3-(2,4-dioxo-1,3-diazinan-1-yl)pyrazolo[1,5-a]pyridin-6-yl]propyl}-2,3-dihydro-1H-isoindol-5-yl)-2H-indazol-2-yl]cyclohexyl}methyl)-2,3,5-trifluoro-4-hydroxybenzamide, trifluoroacetate salt], the DC50 was 0.87 nM and the “Huh7_HIBIT-HSD17β13_DC50 GMean Asymptote Maximum” value was found to be 78%.
In the same order, the values of `O=C1CCN(c2cc(C(=O)N3CCC4(CCC(N5CCN(c6ccc7cn([C@H]8CC[C@H](CNC(=O)c9cc(F)c(O)c(F)c9)CC8)nc7c6)CC5)CC4)CC3)ccc2Cl)C(=O)N1` [Example 110, N-({(1r,4r)-4-[6-(4-{3-[4-chloro-3-(2,4-dioxo-1,3-diazinan-1-yl)benzoyl]-3-azaspiro[5.5]undecan-9-yl}piperazin-1-yl)-2H-indazol-2-yl]cyclohexyl}methyl)-3,5-difluoro-4-hydroxybenzamide] are 2.9 nM and 77%.
In the same order, the values of `Cn1c(=O)n(C2CCC(=O)NC2=O)c2ccc(CCCN3CC(F)(F)CC4(CCN(c5ccc6cn([C@H]7CC[C@H](CNC(=O)c8cc(F)c(O)c(F)c8F)CC7)nc6c5)C4=O)C3)cc21` (mixture of isomers) [Example 65, N-{[(1r,4r)-4-{6-[7-(3-{1-[(3RS)-2,6-dioxopiperidin-3-yl]-3-methyl-2-oxo-2,3-dihydro-1H-benzimidazol-5-yl}propyl)-9,9-difluoro-1-oxo-2,7-diazaspiro[4.5]decan-2-yl]-2H-indazol-2-yl}cyclohexyl]methyl}-2,3,5-trifluoro-4-hydroxybenzamide, trifluoroacetate salt] are 3.8 nM and 81%.
